Source: patent publication US20260258050A1, “IMMUNOMODULATOR” (HITGEN INC., priority 2023, published 2026)

How the values were obtained:
Human IL-17A = target: T1, Human IL-17A (Homo sapiens, UniProt Q16552); assay: Inhibition of human IL-17A protein-induced GROα/CXCL1 production in HT-29 cells; type: cell-based; parameters: purchased R&D 317-ILB; host or cells: added exogenously to HT-29 cells; conditions: 30 ng/mL human IL-17A protein, 48 h, GROα in supernatant by ELISA kit, read-out: Inhibitory IC50 of compounds on HT-29 cell GROα/CXCL1
T1 sequence (Q16552 20-155 limits assumed): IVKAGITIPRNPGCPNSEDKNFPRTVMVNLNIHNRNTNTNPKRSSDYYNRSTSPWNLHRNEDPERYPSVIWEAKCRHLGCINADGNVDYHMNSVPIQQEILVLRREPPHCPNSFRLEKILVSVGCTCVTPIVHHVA
Method in brief: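 Compound dilutions were preincubated 1 h at 37 °C with 30 ng/mL human IL-17A, then added to HT-29 cells (5×10^4/well) for 48 h at 37 °C. GROα in supernatant quantified by ELISA; IC50 for inhibition of its production. Positive control: IL-17A antibody at […].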

Human IL-17AF = target: T2, Human IL-17AF (Homo sapiens, UniProt Q16552+Q96PD4); assay: IL-17AF ELISA (competitive ELISA, IL-17AF/IL-17Ra receptor-ligand binding); conditions: human IL-17AF coated plate, human IL-17Ra, read-out: IC50, inhibitory activity of compounds on human IL-17AF
T2 construct: purchased Sino Biological Inc. CT047-H08H
T2 sequence (Q16552 24-155): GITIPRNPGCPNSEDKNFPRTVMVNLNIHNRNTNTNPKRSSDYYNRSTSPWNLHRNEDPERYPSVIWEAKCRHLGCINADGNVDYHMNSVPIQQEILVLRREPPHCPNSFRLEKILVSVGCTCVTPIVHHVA
T2 sequence (Q96PD4 31-163): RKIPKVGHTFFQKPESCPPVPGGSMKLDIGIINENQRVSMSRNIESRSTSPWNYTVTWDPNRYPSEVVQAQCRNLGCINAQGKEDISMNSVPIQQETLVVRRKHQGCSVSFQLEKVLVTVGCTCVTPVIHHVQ
Method in brief: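 Plates coated with 0.625 μg/ml human IL-17AF in PBS pH 7.4 (37 °C, 30 min) and milk-blocked. Compounds pre-incubated with coated IL-17AF for 10 min at 25 °C, then IL-17Ra added (as 100 nM solution) for 30 min. Bound receptor detected by anti-Fc HRP/TMB at 450 nm; IC50 from variable-slope normalized fit versus DMSO control and blank.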

Row | SMILES | IC50 (Human IL-17A) [nM] | IC50 (Human IL-17AF) [nM]
1 | Cc1[nH]nc2c1-c1cc(F)c(NC(=O)[C@@H](NC(=O)c3ccnn3CC(C)(F)F)C(C3CC3)C3CC3)cc1COCC2 [compound 87] | 100 to 500 | 100 to 500
2 | [2H]C([2H])([2H])C([2H])([2H])n1nccc1C(=O)N[C@H](C(=O)Nc1cc2c(cc1F)-c1c(n[nH]c1C)CCOC2)C(C1CC1)C1CC1 [compound 90] | 100 to 500 | 100 to 500
3 | Cc1[nH]nc2c1-c1cc(F)c(NC(=O)[C@@H](NC(=O)c3ccnn3CCOC(C)C)C(C3CC3)C3CC3)cc1COCC2 [compound 98] | 100 to 500 | 100 to 500
4 | COCC(COC)n1nccc1C(=O)N[C@H](C(=O)Nc1cc2c(cc1F)-c1c(n[nH]c1C)CCOC2)C(C1CC1)C1CC1 [compound 99] | 100 to 500 | 100 to 500
5 | CCOCCn1nccc1C(=O)N[C@H](C(=O)Nc1cc2c(cc1F)-c1c(n[nH]c1C)CCOC2)C(C1CC1)C1CC1 [compound 100] | 100 to 500 | ≤ 100
6 | Cc1[nH]nc2c1-c1cc(F)c(NC(=O)[C@@H](NC(=O)c3cnnn3CCOC(F)F)C(C3CC3)C3CC3)cc1COCC2 [compound 108] | 100 to 500 | 100 to 500
7 | Cc1[nH]nc2c1-c1cc(F)c(NC(=O)[C@@H](NC(=O)c3ccnn3CCOC(C)(C)C)C(C3CC3)C3CC3)cc1COCC2 [compound 113] | 100 to 500 | 100 to 500
8 | Cc1[nH]nc2c1-c1cc(F)c(NC(=O)[C@@H](NC(=O)c3ccnn3CC3(C#N)CC3)C(C3CC3)C3CC3)cc1COCC2 [compound 114] | 100 to 500 | ≤ 100
9 | Cc1[nH]nc2c1-c1cc(F)c(NC(=O)[C@@H](NC(=O)c3ccnn3CC3COC3)C(C3CC3)C3CC3)cc1COCC2 [compound 115] | 100 to 500 | 100 to 500
10 | Cc1[nH]nc2c1-c1cc(F)c(NC(=O)[C@@H](NC(=O)c3ccnn3C(C)C)C(C3CC3)C3CC3)cc1CN(CC1CC1)CC2 [compound 166] | 100 to 500 | 100 to 500
11 | Cc1[nH]nc2c1-c1cnc(NC(=O)[C@@H](NC(=O)c3ccnn3C(C)C)C(C3CC3)C3CC3)cc1CN(Cc1ccccc1)C(=O)C2 [compound 182] | 100 to 500 | 100 to 500
12 | CC(=O)N1CCc2n[nH]c(C)c2-c2cnc(NC(=O)[C@@H](NC(=O)c3ccnn3C(C)C)C(C3CC3)C3CC3)cc2C1 [compound 196] | 100 to 500 | 100 to 500
13 | Cc1[nH]nc2c1-c1cnc(NC(=O)[C@@H](NC(=O)c3ccnn3C(C)C)C(C3CC3)C3CC3)cc1CN(C(C)C)CC2 [compound 200] | 100 to 500 | 100 to 500
14 | Cc1[nH]nc2c1-c1cc(F)c(NC(=O)[C@@H](NC(=O)/C(F)=C\C(C)C)C(C3CC3)C3CC3)cc1COCC2 [compound 229] | ≤ 100 | 100 to 500
15 | Cc1[nH]nc2c1-c1cc(F)c(NC(=O)[C@@H](NC(=O)/C(F)=C\C3CC3)C(C3CC3)C3CC3)cc1COCC2 [compound 230] | ≤ 100 | 100 to 500
16 | Cc1[nH]nc2c1-c1cnc(NC(=O)[C@@H](NC(=O)c3conc3C(C)C)C(C3CC3)C3CC3)cc1COCC2 [compound 234] | 100 to 500 | 100 to 500
17 | Cc1[nH]nc2c1-c1cnc(NC(=O)[C@@H](NC(=O)c3ccnn3CC(F)(F)F)C(C3CC3)C3CC3)cc1COCC2 [compound 236] | 100 to 500 | 100 to 500
18 | Cc1[nH]nc2c1-c1cnc(NC(=O)[C@@H](NC(=O)c3ccnn3C3CC3)C(C3CC3)C3CC3)cc1COCC2 [compound 237] | 100 to 500 | 100 to 500

Second part, the compound after the results:

Row | IC50 (Human IL-17A) [nM] | IC50 (Human IL-17AF) [nM] | SMILES
19 | ≤ 100 | 100 to 500 | Cc1[nH]nc2c1-c1cc(F)c(NC(=O)[C@@H](NC(=O)c3ccnn3CCC(F)(F)F)C(C3CC3)C3CC3)cc1COCC2 [compound 88]
20 | ≤ 100 | 100 to 500 | [2H]C([2H])([2H])C([2H])(n1nccc1C(=O)N[C@H](C(=O)Nc1cc2c(cc1F)-c1c(n[nH]c1C)CCOC2)C(C1CC1)C1CC1)C([2H])([2H])[2H] [compound 89]
21 | ≤ 100 | ≤ 100 | Cc1[nH]nc2c1-c1cc(F)c(NC(=O)[C@@H](NC(=O)c3ccnn3C[C@@H]3C[C@H]3F)C(C3CC3)C3CC3)cc1COCC2 [compound 101]
22 | ≤ 100 | 100 to 500 | Cc1[nH]nc2c1-c1cc(F)c(NC(=O)[C@@H](NC(=O)c3ccnn3CCOC3CC3)C(C3CC3)C3CC3)cc1COCC2 [compound 102]
23 | ≤ 100 | 100 to 500 | Cc1[nH]nc2c1-c1cc(F)c(NC(=O)[C@@H](NC(=O)c3ccnn3CCOCC(F)(F)F)C(C3CC3)C3CC3)cc1COCC2 [compound 104]
24 | ≤ 100 | 100 to 500 | Cc1[nH]nc2c1-c1cnc(NC(=O)[C@@H](NC(=O)c3ccnn3CCCF)C(C3CC3)C3CC3)cc1COCC2 [compound 124]
25 | ≤ 100 | 100 to 500 | Cc1[nH]nc2c1-c1cc(F)c(NC(=O)[C@@H](NC(=O)c3ccnn3C(C)C)C(C3CC3)C3CC3)cc1CN(C1CCOCC1)C(=O)C2 [compound 167]
26 | ≤ 100 | 100 to 500 | Cc1[nH]nc2c1-c1cc(F)c(NC(=O)[C@@H](NC(=O)c3ccnn3C(C)C)C(C3CC3)C3CC3)cc1CN(C1CCC(F)(F)CC1)C(=O)C2 [compound 168]
27 | ≤ 100 | ≤ 100 | Cc1[nH]nc2c1-c1cc(F)c(NC(=O)[C@@H](NC(=O)c3ccnn3C(C)C)C(C3CC3)C3CC3)cc1CN(C1CC(F)(F)C1)C(=O)C2 [compound 169]
28 | ≤ 100 | ≤ 100 | Cc1[nH]nc2c1-c1cc(F)c(NC(=O)[C@@H](NC(=O)c3ccnn3C(C)C)C(C3CC3)C3CC3)cc1CN(C1CCC1)C(=O)C2 [compound 170]
29 | ≤ 100 | 100 to 500 | Cc1[nH]nc2c1-c1cc(F)c(NC(=O)[C@@H](NC(=O)c3ccnn3C(C)C)C(C3CC3)C3CC3)cc1CN(C1CCOCC1)CC2 [compound 174]
30 | ≤ 100 | ≤ 100 | Cc1[nH]nc2c1-c1cc(F)c(NC(=O)[C@@H](NC(=O)c3ccnn3C(C)C)C(C3CC3)C3CC3)cc1CN(C1CC(F)(F)C1)CC2 [compound 176]
31 | ≤ 100 | ≤ 100 | Cc1[nH]nc2c1-c1cnc(NC(=O)[C@@H](NC(=O)c3ccnn3C(C)C)C(C3CC3)C3CC3)cc1CN(C1CC1)C(=O)C2 [compound 191]
32 | ≤ 100 | ≤ 100 | Cc1[nH]nc2c1-c1cnc(NC(=O)[C@@H](NC(=O)c3ccnn3C(C)C)C(C3CC3)C3CC3)cc1CN(CC(F)F)C(=O)C2 [compound 192]
33 | ≤ 100 | ≤ 100 | Cc1[nH]nc2c1-c1cnc(NC(=O)[C@@H](NC(=O)c3ccnn3C(C)C)C(C3CC3)C3CC3)cc1CN(CC(C)(F)F)C(=O)C2 [compound 193]
34 | ≤ 100 | 100 to 500 | Cc1[nH]nc2c1-c1cnc(NC(=O)[C@@H](NC(=O)c3ccnn3C(C)C)C(C3CC3)C3CC3)cc1CN(C1CC(F)(F)C1)C(=O)C2 [compound 194]
35 | ≤ 100 | 100 to 500 | Cc1[nH]nc2c1-c1cnc(NC(=O)[C@@H](NC(=O)c3ccnn3C(C)C)C(C3CC3)C3CC3)cc1CN(C(C)C)C(=O)C2 [compound 195]
36 | ≤ 100 | 100 to 500 | Cc1[nH]nc2c1-c1cnc(NC(=O)[C@@H](NC(=O)c3ccnn3C(C)C)C(C3CC3)C3CC3)cc1CN(C1CC1)CC2 [compound 198]
37 | ≤ 100 | ≤ 100 | Cc1[nH]nc2c1-c1cnc(NC(=O)[C@@H](NC(=O)c3ccnn3C(C)C)C(C3CC3)C3CC3)cc1CN(CC(C)(F)F)CC2 [compound 199]
38 | ≤ 100 | 100 to 500 | Cc1[nH]nc2c1-c1cnc(NC(=O)[C@@H](NC(=O)c3ccnn3C(C)C)C(C3CC3)C3CC3)cc1CN(C1CCC1)CC2 [compound 201]
39 | ≤ 100 | 100 to 500 | Cc1[nH]nc2c1-c1cnc(NC(=O)[C@@H](NC(=O)c3ccnn3C(C)C)C(C3CC3)C3CC3)cc1CN(CC(F)F)CC2 [compound 202]
40 | ≤ 100 | ≤ 100 | Cc1[nH]nc2c1-c1cnc(NC(=O)[C@@H](NC(=O)c3conc3C(C)C)C(C3CC3)C3CC3)cc1CN(C1CC1)CC2 [compound 214]
41 | ≤ 100 | ≤ 100 | Cc1[nH]nc2c1-c1cnc(NC(=O)[C@@H](NC(=O)c3conc3C3CC3)C(C3CC3)C3CC3)cc1CN(C1CC1)CC2 [compound 215]
42 | ≤ 100 | 100 to 500 | CCc1nocc1C(=O)N[C@H](C(=O)Nc1cc2c(cn1)-c1c(n[nH]c1C)CCN(C1CC1)C2)C(C1CC1)C1CC1 [compound 216]
43 | ≤ 100 | ≤ 100 | CCn1nccc1C(=O)N[C@H](C(=O)Nc1cc2c(cn1)-c1c(n[nH]c1C)CCN(C1CC1)C2)C(C1CC1)C1CC1 [compound 217]
44 | ≤ 100 | ≤ 100 | Cc1[nH]nc2c1-c1cc(F)c(NC(=O)[C@@H](NC(=O)c3ccnn3CCCF)C(C3CC3)C3CC3)cc1CN(C1CC1)CC2 [compound 218]
